Assay results: US10278965B2, “Method of detecting cancer stem cell, method of screening cancer stem cell, and method of inhibiting cancer stem cell” (CANON KABUSHIKI KAISHA, priority 2012, dated 2019)

Columns and labels:
[1] = test system: Human pancreas cancer cells, KLM-1; assay: Cancer cell inhibitory (growth suppressive) action against pancreatic cancer cells, CellTiter-Glo viable cell count; conditions: KLM-1, 10 μg/mL, 24 hours
Method: Human pancreas cancer cells, KLM-1, were pre-cultured in RPMI1640 medium containing 10% FBS at 37° C. in a 5% CO2 ambient. Thereafter, 4,000 cells were seeded per well of a 96-well plate and further cultured for 24 hours. […] The cultured cells were analyzed for viable cell count according to CellTiter-Glo Luminescent Cell Viability Assay (manufactured by Promega KK.).
Evaluation of cancer cell inhibition against the pancreatic cancer cells (KLM-1) (growth suppression) was made based on the following criteria. Note that the growth rate used in Examples refers to the rate (expressed by percentage) of viable cell count after culture relative to the number of cells at the initiation of cell culture.

[2] = test system: Prostatic cancer cells, PC-3; assay: Cancer cell inhibitory (growth suppressive) action against prostatic cancer cells, CellTiter-Glo viable cell count; format: cell-based; conditions: PC-3, 10 μg/mL, 24 hours
Method: Prostatic cancer cells, PC-3, were pre-cultured in RPMI1640 medium containing 10% FBS at 37° C. in a 5% CO2 ambient. Thereafter, 4,000 cells were seeded per well of a 96-well plate and further cultured for 24 hours. Subsequently, Compound (1) was added to the medium so as to obtain a final concentration of 10 μg/mL and cultured at 37° C. for 24 hours in a 5% CO2 ambient. The cultured cells were analyzed for viable cell count according to Cell Titer-Glo Luminescent Cell Viability Assay (manufactured by Promega KK.).
Viable cell count was analyzed in the same manner as in Experimental Example 24 except that Compound (1) of Experimental Example 24 was changed to each compound shown in Table 2.
Viable cell count was analyzed in the same manner as in Experimental Example 24 except that Compound (1) of Experimental Example 24 was changed to each of Comparative compounds 1 to 4, to obtain growth rates.
Note that the growth rate used in Examples refers to the rate (expressed by percentage) of viable cell count after culture relative to the number of cells at the initiation of cell culture. Evaluation criteria are the same as in the above experiments.

[3] = test system: Human chronic myelocytic leukemia cells, K562, ALDH (+) fraction (cancer stem cells); assay: Cancer stem-cell selective inhibitory action against chronic myelocytic leukemia cells, ALDH (+) fraction; format: cell-based; conditions: 24 hours
Method: Human chronic myelocytic leukemia cells, K562, were pre-cultured in RPMI1640 medium containing 10% FBS at 37° C. in a 5% CO2 ambient. Then, a fraction containing 80% or more of cancer stem cells was extracted by use of a cancer stem cell marker, ALDEFLUOR reagent (manufactured by VERITAS Corporation) and FACSAria flow cytometry (manufactured by Nippon Becton, Dickinson and Company). […] The cultured cells were analyzed for viable cell count according to CellTiter-Glo Luminescent Cell Viability Assay (manufactured by Promega KK.). […] Note that hereinafter, an ALDEFLUOR reagent positive fraction (deemed as cancer stem cells) is represented by ALDH (+), whereas an ALDEFLUOR reagent negative fraction (not deemed as cancer stem cells) is represented by ALDH (−), in some cases.
Further, the growth suppressive effect of cancer stem cells was evaluated based on the following criteria. Note that the growth rate in Examples is a value obtained by dividing viable cell count after culture by the number of cells at the initiation time of culture.

[4] = Measurement of fluorescent property of compound; format: physicochemical; conditions: 5 μM DMSO solution
Method: The excitation wavelength and fluorescence wavelength of the compound were measured by a FL4500 spectrofluorometric measuring machine manufactured by Hitachi High-Technologies Corporation.

| Excitation wavelength λex [4] [nm] | Fluorescence wavelength λem [4] [nm] | Compound | Cancer cell growth rate (%) [1] [%] | Evaluation (cancer cell growth rate) [1] | Cancer cell growth rate (%) [2] [%] | Evaluation (cancer cell growth rate) [2] | ALDH(+) Superiority evaluation ([3]; K562, 1 μg/ml) | ALDH(+)/ALDH(−) ([3]; K562, 1 μg/ml) | ALDH(+) Superiority evaluation ([3]; K562, 10 μg/ml) | ALDH(+)/ALDH(−) ([3]; K562, 10 μg/ml) |
| --- | --- | --- | --- | --- | --- | --- | --- | --- | --- | --- |
| 344 | 381 | CCC(=C\c1sc2c3ccccc3ccc2[n+]1CC)/C=C1/Sc2c(ccc3ccccc23)N1CC.[I-] [Compound 7] | 13.0 | A (Cancer cell growth rate is less than 20%) | 15.3 | A (Cancer cell growth rate is less than 20%) |  |  |  |  |
| 586 | 615 | CCC(=C\c1sc2ccc3ccccc3c2[n+]1CC)/C=C1/Sc2ccc3ccccc3c2N1CC [Compound 10] | 13.5 | A (Cancer cell growth rate is less than 20%) |  |  |  |  |  |  |
| 354 | 469 | CCN1/C(=C\C(C)=C\c2sc3c4ccccc4ccc3[n+]2CC)Sc2c1ccc1ccccc21 [Compound 11] | 5.0 | A (Cancer cell growth rate is less than 20%) | 4.3 | A (Cancer cell growth rate is less than 20%) |  |  |  |  |
| 492 | 510 | CCCCCCCN1/C(=C\C=C\c2oc3ccccc3[n+]2CCCCCCC)Oc2ccccc21 [Compound 18] |  |  |  |  |  |  | A (The value of the growth rate of ALDH (+)/the growth rate of ALDH (−) is less than 0.8) | 0.29 |
| 589 | 614 | CCN1\C(=C/C=C/C=C/c2oc3ccccc3[n+]2CC)Oc2ccccc21 [Compound 28] |  |  |  |  | B (The value of the growth rate of ALDH (+)/the growth rate of ALDH (−) is 0.8 or more and less than 0.95) | 0.83 | A (The value of the growth rate of ALDH (+)/the growth rate of ALDH (−) is less than 0.8) | 0.69 |
| 819 | 825 | CCN1/C(=C/C=C2\CCCC(/C=C/C3=[N+](CC)c4ccc(OC)cc4C3(C)C)=C2Cl)C(C)(C)c2cc(OC)ccc21 [Compound 40] | 14.1 | A (Cancer cell growth rate is less than 20%) |  |  |  |  |  |  |
| 797 | 816 | CCCCN1/C(=C/C=C2\CCCC(/C=C/C3=[N+](CCCC)c4ccccc4C3(C)C)=C2Cl)C(C)(C)c2ccccc21 [Compound 43] | 35.6 | B (Cancer cell growth rate is 20% or more and less than 50%) | 12.3 | A (Cancer cell growth rate is less than 20%) |  |  |  |  |
| 665 | 681 | CCN1C=C/C(=C/C=C/c2ccc3ccccc3[n+]2CC)c2ccccc21.[I-] [Compound 45] | 28.5 | B (Cancer cell growth rate is 20% or more and less than 50%) |  |  |  |  |  |  |
| 774 | 800 | CCCCN1/C(=C/C=C2\CCCC(/C=C/C3=[N+](CCCC)c4ccccc4C3(C)C)=C2c2ccccc2)C(C)(C)c2ccccc21 [Compound 54] |  |  |  |  |  |  | A (The value of the growth rate of ALDH (+)/the growth rate of ALDH (−) is less than 0.8) | 0.50 |
| 804 | 520 | CN1/C(=C/C=C2\CCCC(/C=C/C3=[N+](C)c4ccccc4C3(C)C)=C2Sc2ccccc2)C(C)(C)c2ccccc21 [Compound 59] |  |  |  |  | A (The value of the growth rate of ALDH (+)/the growth rate of ALDH (−) is less than 0.8) | 0.67 | A (The value of the growth rate of ALDH (+)/the growth rate of ALDH (−) is less than 0.8) | 0.22 |
| 670 | 696 | CN1/C(=C/C=C/C=C/C2=[N+](C)c3ccc4ccccc4c3C2(C)C)C(C)(C)c2cc(Cl)ccc21 [Compound 60] |  |  |  |  |  |  | A (The value of the growth rate of ALDH (+)/the growth rate of ALDH (−) is less than 0.8) | 0.34 |

More lines, now with the values behind:

| Compound | Excitation wavelength λex [4] [nm] | Fluorescence wavelength λem [4] [nm] | Cancer cell growth rate (%) [1] [%] | Evaluation (cancer cell growth rate) [1] | Cancer cell growth rate (%) [2] [%] | Evaluation (cancer cell growth rate) [2] | ALDH(+) Superiority evaluation ([3]; K562, 1 μg/ml) | ALDH(+)/ALDH(−) ([3]; K562, 1 μg/ml) | ALDH(+) Superiority evaluation ([3]; K562, 10 μg/ml) | ALDH(+)/ALDH(−) ([3]; K562, 10 μg/ml) |
| --- | --- | --- | --- | --- | --- | --- | --- | --- | --- | --- |
| O=C(O)CN1/C(=C\C2=C(Cl)C(=C/c3sc4ccccc4[n+]3CC(=O)O)/CCC2)Sc2ccccc21 [Comparative compound 3, reference compound] |  |  | 93.0 | C (Cancer cell growth rate is 50% or more) | 101 | C (Cancer cell growth rate is 50% or more) | C (The value of the growth rate of ALDH (+)/the growth rate of ALDH (−) is 0.95 or more) | 0.79 |  |  |
| CCC(/C=C1\Sc2ccccc2N1CC)=C\c1sc2ccccc2[n+]1CC.[I-] [Compound 4] | 563 | 569 | 3.1 | A (Cancer cell growth rate is less than 20%) | 19.5 | A (Cancer cell growth rate is less than 20%) |  |  |  |  |
| CN1/C(=C\C=C\C2=[N+](C)c3ccc4ccccc4c3C2(C)C)C(C)(C)c2c1ccc1ccccc21 [Compound 20] |  |  | 1.2 | A (Cancer cell growth rate is less than 20%) | 13.1 | A (Cancer cell growth rate is less than 20%) |  |  |  |  |
| CCN1/C(=C/C=C/C=C/C=C/C2=[N+](CC)c3ccccc3C23CCCCC3)C2(CCCCC2)c2ccccc21 [Compound 31] |  |  | 30.5 | B (Cancer cell growth rate is 20% or more and less than 50%) |  |  |  |  |  |  |
| CCN1/C(=C/C=C/C=C/C=C/C2=[N+](CC)c3ccccc3C2(C)C)C(C)(C)c2ccccc21 [Compound 32] |  |  |  |  |  |  |  |  | A (The value of the growth rate of ALDH (+)/the growth rate of ALDH (−) is less than 0.8) | 0.32 |
| CCOC(=O)C1(C(=O)OCC)CC(/C=C/C2=[N+](CC)c3ccccc3C2(C)C)=CC(=C/C=C2/N(CC)c3ccccc3C2(C)C)/C1 [Compound 37] | 650 | 770 | 4.8 | A (Cancer cell growth rate is less than 20%) |  |  |  |  |  |  |
| CCN1C=C/C(=C/C=C/c2cc[n+](CC)c3ccccc23)c2ccccc21 [Compound 46] | 679 | 715 | 16.7 | A (Cancer cell growth rate is less than 20%) | 17.7 | A (Cancer cell growth rate is less than 20%) |  |  |  |  |
| CCN1/C(=C\C=C\c2ccc3ccccc3[n+]2CC)C=Cc2ccccc21.[I-] [Compound 47] | 615 | 637 | 8.6 | A (Cancer cell growth rate is less than 20%) | 13.8 | A (Cancer cell growth rate is less than 20%) |  |  |  |  |
| CCCC[N+]1=C(/C=C/C2=C(Cl)C(=C/C=C3/N(C)c4ccccc4C3(C)C)/CCC2)C(C)(C)c2c1ccc1ccccc21 [Compound 51] |  |  |  |  |  |  |  |  | A (The value of the growth rate of ALDH (+)/the growth rate of ALDH (−) is less than 0.8) | 0.27 |
| CC(C)CCN1/C(=C/C=C/C=C/C2=[N+](CCC(C)C)c3ccc4ccccc4c3C2(C)C)C(C)(C)c2c1ccc1ccccc21 [Compound 55] | 688 | 715 |  |  |  |  |  |  | A (The value of the growth rate of ALDH (+)/the growth rate of ALDH (−) is less than 0.8) | 0.33 |
| CCC(/C=C1\Oc2ccccc2N1CC)=C\c1oc2ccccc2[n+]1CC [Compound 56] |  |  |  |  |  |  |  |  | A (The value of the growth rate of ALDH (+)/the growth rate of ALDH (−) is less than 0.8) | 0.65 |
| CCC(=C\c1oc2ccc(-c3ccccc3)cc2[n+]1CC)/C=C1/Oc2ccc(-c3ccccc3)cc2N1CC [Compound 57] |  |  |  |  |  |  |  |  | B (The value of the growth rate of ALDH (+)/the growth rate of ALDH (−) is 0.8 or more and less than 0.95) | 0.81 |
